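1) Cells in 96-well plates. 2) Compound, 48 h, 5 concentrations. 3) Linear interpolation between surrounding doses. 4) Unreached endpoint = highest concentration. TGI denotes the concentration required for complete inhibition of growth.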 Where only a bound is given, the exact number is not on record here.

Among the test systems are MDA-MB-231 breast; 786-0 renal; UO-31 renal; NCI-H226 lung; SF-539 CNS; HS 578T breast; NCI/ADR-RES ovarian; MCF7 breast; HOP-62 NSCLC; A549 NSCLC; PC-3 prostate; RXF 393 renal.
What all share (assay): NCI tumour cell line growth inhibition, 48 h

For `N=C(N)SC1c2ccccc2-c2cc([N+](=O)[O-])ccc21` (configuration not stated), the TGI in the experiment on MDA-MB-231 breast turned out to be 23.6 µM; in the experiment with 786-0 renal, 14.9 µM; with UO-31 renal, 20.3 µM; with NCI-H226 lung it was 21 µM; in the experiment with SF-539 CNS, 13.7 µM; in the experiment with HS 578T breast, 12.2 µM. For the same compound, the TGI is 16 µM in the experiment with NCI/ADR-RES ovarian; 12.4 µM with MCF7 breast; 21.2 µM in the experiment with HOP-62 NSCLC; 19.4 µM in the experiment on A549 NSCLC; 13.8 µM with PC-3 prostate; 10.3 µM in the experiment on RXF 393 renal.
On to `CN[C@@H]1[C@H](O)[C@H](NC)[C@H]2O[C@@]3(O)C(=O)C[C@@H](C)O[C@H]3O[C@@H]2[C@H]1O`, for which the TGI with MDA-MB-231 breast, in the experiment with UO-31 renal, in the experiment with NCI-H226 lung, in the experiment on SF-539 CNS, in the experiment with HS 578T breast and in the experiment with NCI/ADR-RES ovarian was over 100 µM each time. For the same compound, the TGI in the experiment with MCF7 breast, in the experiment on HOP-62 NSCLC, in the experiment on PC-3 prostate and in the experiment on RXF 393 renal was over 100 µM each time.
`Nc1nc(SCCC/C=C/B(O)O)nc2c1ncn2C1OC(CO)C(O)C1O` (configuration not stated): the TGI in the experiment on NCI-H226 lung, in the experiment with SF-539 CNS, with HOP-62 NSCLC, in the experiment on A549 NSCLC and with RXF 393 renal was over 243 µM in each case.
Turning to `O=[N+]([O-])/C=C/c1cccc(F)c1`, the TGI in the experiment on MDA-MB-231 breast was 38.2 µM; in the experiment on UO-31 renal, 5.87 µM; in the experiment on NCI-H226 lung, 6.05 µM; in the experiment on SF-539 CNS, 20.8 µM; with HS 578T breast, 9.18 µM; in the experiment with NCI/ADR-RES ovarian, 35.2 µM. The TGI in the experiment with MCF7 breast was 3 µM; in the experiment with HOP-62 NSCLC, 32.4 µM; in the experiment on A549 NSCLC, over 100 µM; in the experiment with PC-3 prostate, 11.9 µM; with RXF 393 renal it was 4.32 µM.
On to `C=C(/C=C/C=C(/CCC=C(C)C)COC(C)=O)[C@@H]1CC[C@]2([C@H](CCCO)/C(=C(/C)C=O)CC[C@]2(C)O)[C@@H]1O`, for which the TGI worked out at 25.6 µM in the experiment with UO-31 renal; 19.6 µM in the experiment with NCI-H226 lung; 28.5 µM in the experiment with SF-539 CNS; 26.2 µM with A549 NSCLC; 33.1 µM in the experiment on RXF 393 renal.
`C[n+]1ccccc1/C=C/c1ccc2c(c1)OCO2`: the TGI in the experiment on MDA-MB-231 breast, in the experiment with 786-0 renal, in the experiment with NCI-H226 lung, in the experiment with SF-539 CNS, with HS 578T breast and with NCI/ADR-RES ovarian was over 10 µM throughout. The TGI in the experiment on MCF7 breast, with HOP-62 NSCLC, in the experiment with A549 NSCLC, in the experiment on PC-3 prostate and with RXF 393 renal was over 10 µM each time.
Consider `NC(=O)c1nnc2cc(F)c(F)cc2c1N`, for which the TGI with MDA-MB-231 breast is over 100 µM; with 786-0 renal it was over 100 µM; in the experiment with UO-31 renal it was over 100 µM; in the experiment on NCI-H226 lung, 73.6 µM; in the experiment on SF-539 CNS, over 100 µM; with HS 578T breast it was 84.4 µM. Also, the TGI in the experiment with NCI/ADR-RES ovarian is over 100 µM; in the experiment on MCF7 breast it was over 100 µM; in the experiment on HOP-62 NSCLC it was 39.6 µM; in the experiment with A549 NSCLC it was over 100 µM; with PC-3 prostate, over 100 µM.
In the case of `COc1cc2c(cc1OC)C(C1(O)CCCCC1)NCC2` (configuration not stated), the TGI with UO-31 renal, in the experiment on NCI-H226 lung, in the experiment with HOP-62 NSCLC and in the experiment on RXF 393 renal was over 100 µM in each case.
For `CC1(C)[C@@H]2C[C@H]1C(Cc1ccccc1C[C@H]1c3cc(-c4ccccn4)ncc3[C@H]3C[C@@H]1C3(C)C)c1cc(-c3ccccn3)ncc12` (some centres not stated), the TGI with MDA-MB-231 breast is over 68 µM; with UO-31 renal, 2.41 µM; in the experiment with SF-539 CNS, 8.42 µM; in the experiment on HS 578T breast, over 100 µM; in the experiment with NCI/ADR-RES ovarian, over 36.7 µM; in the experiment on MCF7 breast, over 100 µM. Further, the TGI is 0.328 µM with HOP-62 NSCLC, over 100 µM in the experiment with A549 NSCLC and over 25.1 µM with RXF 393 renal.
As for `Nc1nc(Cl)cc(NCCCCO)n1`, the TGI with UO-31 renal is over 100 µM; in the experiment on NCI-H226 lung it was over 100 µM; in the experiment with SF-539 CNS it was over 100 µM; in the experiment with HOP-62 NSCLC, over 10 µM; in the experiment with A549 NSCLC it was over 100 µM; with RXF 393 renal, over 100 µM.
Regarding `CCCNCC(O)/C=C/[Si](C)(C)C` (configuration not stated) (tested in a mixture with another compound), the TGI in the experiment with UO-31 renal, in the experiment with SF-539 CNS, in the experiment on A549 NSCLC and with RXF 393 renal was over 100 µM throughout.
Regarding `Cc1ccccc1N=Nc1ccc(N=Nc2c(O)ccc3cc(S(=O)(=O)O)cc(S(=O)(=O)O)c23)c(C)c1`, the TGI in the experiment with MDA-MB-231 breast, in the experiment with 786-0 renal, with UO-31 renal, in the experiment with NCI-H226 lung, in the experiment on SF-539 CNS and with HS 578T breast was over 100 µM each time. For the same compound, the TGI with NCI/ADR-RES ovarian, with MCF7 breast, with HOP-62 NSCLC, in the experiment on A549 NSCLC, in the experiment with PC-3 prostate and in the experiment with RXF 393 renal was over 100 µM in each case.
On to `Cc1nnc2sc(-c3ccc(N)cc3)nn12`, for which the TGI in the experiment with MDA-MB-231 breast, in the experiment on 786-0 renal, in the experiment with UO-31 renal, in the experiment on NCI-H226 lung, in the experiment on SF-539 CNS and in the experiment on HS 578T breast was over 100 µM in each case. The TGI in the experiment with NCI/ADR-RES ovarian, in the experiment with MCF7 breast, with HOP-62 NSCLC, with A549 NSCLC, in the experiment on PC-3 prostate and in the experiment with RXF 393 renal was over 100 µM throughout.
In the case of `Cc1c(Cl)c(S(N)(=O)=O)cc(S(N)(=O)=O)c1NC(=O)c1ccc(Cl)cc1`, the TGI in the experiment with 786-0 renal, with UO-31 renal, in the experiment with NCI-H226 lung, in the experiment on HS 578T breast, with NCI/ADR-RES ovarian and in the experiment on MCF7 breast was over 100 µM each time. Also, the TGI in the experiment with HOP-62 NSCLC, with A549 NSCLC, in the experiment on PC-3 prostate and with RXF 393 renal was over 100 µM each time.

The values above are taken from PubChem BioAssay (NCI).
